Earlier results as cited in patent US12630850B2, “Enzymatic break down of chlorogenic acid in sunflower-containing products” (Chapman University, priority 2022, dated 2026).

B1: L. gasseri: CGA esterase from the bacterium L. gasseri (Fritsch et al., 2017) (protein, listed as Lactobacillus gasseri)
chain: MKLKKKKVGIYMATITIERDGLNLVGTREEPFGEIYDMAIIFHGFTANRNTPLLKEIADELRDENIASVRFDFNGHGDSDGKFENMTVLNEIEDANAILNYVKTDPHVRNIYLVGHSQGGVVASMLAGLYPDIIKKVVLLAPAATLKTDALNGSTQGVKYNPDHIPDRLPFKDLTLGFYLRIAQQLPIYEVSVHFTRPVCLIHGANDTWSPDASKKYDQVYENSTLHLVEGADHSFTDTYQKTAADLTAEFLQDNNTF
B2: L. johnsonii: CGA esterase from L. johnsonii (Lai et al., 2009) (protein, listed as Lactobacillus johnsonii)
chain: MATTITLERDGLQLVGTREEPFGEIYDMAIIFHGFTANRNTSLLKEIANSLRDENIASVRFDFNGHGDSDGKFENMTVLNEIEDANAILNYVKTDPHVRNIYLVGHSQGGVVASMLAGLYPDLIKKVVLLAPAATLKSDALEGNTQGVTYNPDHIPDRLPFKDLTLGFYLRIAQQLPIYEVSAQFTKPVCLIHGTDDTWSPNASKKYDQIYQNSTLHLIEGADHCFSDSYQKNAVNLTTDFLQNNNAF

How the values were obtained:
[1] = Kabir et al., 2014; cited from earlier work
[2] = p-nitrophenyl acetate, between 20° C. and 40° C.; cited from earlier work
[3] = Lai et al., 2009; cited from earlier work

Molecule | pKa [1] | further results
O=C(/C=C/c1ccc(O)c(O)c1)O[C@@H]1C[C@](O)(C(=O)O)C[C@@H](O)[C@H]1O [CGA, Chlorogenic acid] | 3.6 | –
O=C(O)/C=C/c1ccc(O)c(O)c1 [caffeic acid] | 4.5 | –
O=C(O)[C@]1(O)C[C@@H](O)[C@@H](O)[C@H](O)C1 [quinic acid] | 3.4 | –
B1 | – | Temperature-dependence of activity [2]: very weak temperature-dependence
B2 | – | Km [3]: 53 µM
